Experimental findings from patent publication EP4635945A1, “CRYSTAL FORM OF PROXIMOD, PREPARATION METHOD THEREFOR, AND USE THEREOF” (Jiankuan (Suzhou) Biotechnology Co., Ltd, priority 2022, dated 2024) are described below.

A short description of data set [1]: Hygroscopicity by dynamic vapor sorption (DVS). It is filed as physicochemical. The conditions noted are these: for Hygroscopicity description: DVS, 90% RH, hydrochloride. The text has this:
In the examples of the present application, the instrument used for the X-ray powder diffraction test is the D2 Phaser produced by Bruker. The instrument used for the differential scanning calorimetry test is the differential scanning calorimeter DSC 250 produced by TA Instruments. The instrument used for the thermogravimetric analysis is the thermogravimetric analyzer TGA 55 produced by TA Instruments. The instrument used for the FT-IR test is the Fourier infrared spectrometer ID1-summit produced by Thermo. The instrument used for the dynamic vapor sorption test is the DVS Intrinsic produced by Surface Measurement Systems (SMS). The instrument used for the microscopy is the microscope NJF-120A produced by Suzhou Nanguang Electronic Technology Co., Ltd.

Data set [2] is described as follows: Intrinsic dissolution of tableted crystal forms. It is filed as physicochemical. Conditions: hydrochloride.
The mark [3] stands for this setting: Medium pH = 4.0, flow rate 4 mL/minute, 5 min.
Setting [4] is: Medium pH = 4.0, flow rate 4 mL/minute, 10 min.
Setting [5] is: Medium pH = 4.0, flow rate 4 mL/minute, 30 min.
Setting [6] is: Medium pH = 4.0, flow rate 4 mL/minute, 45 min.
Setting [7] is: Medium pH = 4.0, flow rate 4 mL/minute, 60 min.
[8] abbreviates: Medium pH = 4.0, flow rate 4 mL/minute, 90 min.

The structures appear in SMILES notation. Entries after “also recorded” stand apart in the source; their conditions may differ.

`CCCc1nc(-c2ccc(-c3ccc(CCC(N)(CO)CO)cc3)cc2)co1.Cl` [Crystal form A, 2-amino-2-{2-(4'-(2-propyloxazol-4-yl)-[1,1'-biphenyl]-4-yl)ethyl}-1,3-propanediol hydrochloride]: the “Weight gain by water absorption (DVS)” value turned out to be 0.06% in data set [1] (24.4 °C/90% RH) and 0.26% in data set [1] (vapor sorption at 25 °C/90% RH). For the same molecule, in data set [1], the Hygroscopicity description result is given as “no or almost no hygroscopicity; also recorded: slightly hygroscopic”. In addition, the Dissolution amount is recorded as 0.0005 mg/mL in data set [2] (Medium Water, 5 min); 0.0010 mg/mL in data set [2] (Medium Water, 10 min); 0.0011 mg/mL in data set [2] (Medium Water, 30 min); 0.0003 mg/mL in data set [2] (Medium Water, 45 min); 0.0010 mg/mL in data set [2] (Medium Water, 60 min); 0.0012 mg/mL in data set [2] (Medium Water, 90 min). The Dissolution amount worked out at 0.0346 mg/mL in data set [2] (setting [3]); 0.0462 mg/mL in data set [2] (setting [4]); 0.0481 mg/mL in data set [2] (setting [5]); 0.0477 mg/mL in data set [2] (setting [6]); 0.0487 mg/mL in data set [2] (setting [7]); 0.0479 mg/mL in data set [2] (setting [8]).
Turning to `CCCc1nc(-c2ccc(-c3ccc(CCC(N)(CO)CO)cc3)cc2)co1.Cl` [Crystal form B, 2-amino-2-{2-(4'-(2-propyloxazol-4-yl)-[1,1'-biphenyl]-4-yl)ethyl}-1,3-propanediol hydrochloride], the “Weight gain by water absorption (DVS)” value in data set [1] (25.6 °C/90% RH) is listed as 0.30%; in data set [1] (vapor sorption at 25 °C/90% RH), 0.26%. In data set [1], the Hygroscopicity description entry is listed as “slightly hygroscopic”. In addition, the Dissolution amount result is listed as “Not detected” in data set [2] (Medium Water, 5 min); 0.0002 mg/mL in data set [2] (Medium Water, 10 min); 0.0003 mg/mL in data set [2] (Medium Water, 30 min); 0.0009 mg/mL in data set [2] (Medium Water, 45 min); 0.0003 mg/mL in data set [2] (Medium Water, 60 min); 0.0004 mg/mL in data set [2] (Medium Water, 90 min). For the same molecule, the Dissolution amount in data set [2] (setting [3]) was determined as 0.0307 mg/mL; in data set [2] (setting [4]) it was 0.0404 mg/mL; in data set [2] (setting [5]), 0.0461 mg/mL; in data set [2] (setting [6]), 0.0488 mg/mL; in data set [2] (setting [7]), 0.0469 mg/mL; in data set [2] (setting [8]) it was 0.0487 mg/mL.
